# Experimental data published in patent publication US20240279220A1, “INDOLE COMPOUNDS AND METHODS OF USE” (Genzyme Corporation, priority 2021, published 2024).
# Test system: NBD1/3D
# Experiment: Aggregation analysis using differential static light scattering (DSLS), NBD1 thermal stability
# Type: binding, Human
# Conditions: ΔTagg versus DMSO control; compound at 100 μM
# Procedure: Purified recombinant NBD1 was produced using previously described methods (A. Schmidt, J. L. Mendoza, P. J. Thomas (2011) Biochemical and Biophysical Approaches to Probe CFTR Structure (365-376) M. D. Amaral, K. Kunzelmann (eds.), Cystic Fibrosis, Methods in Molecular Biology 741, Springer Science+Business Media). The effect of test compounds on thermal stability of NBD1 was evaluated by differential static light scattering (DSLS) using the Harbinger Stargazer-384 instrument (Epiphyte Three, Toronto, Canada).
# Test compounds were dissolved and diluted to desired concentrations in 100% DMSO. The compounds or DMSO controls (100 nL) were stamped into wells of a […] low volume optical plate (Corning Inc., Corning, NY) using the Echo 555 acoustic liquid handler (Labcyte Inc., San Jose, CA).
# NBD1 protein was diluted to 0.2 mg/ml in S200 buffer (50 mM Tris-HCl, 150 mM NaCl, 5 mM MgCl2, 2 mM ATP, 2 mM DTT, pH7.6) containing 1% glycerol. 10 uL of protein solution was aliquoted into the 384-well plate harboring the test compounds and 10 uL mineral oil was overlayed onto the protein solution, using the epMotion robotic liquid handler (Eppendorf North America, Hauppauge, NY). After placing into the Stargazer instrument, the plate was heated at 1° C. per minute to 70° C. Images were captured from 25° C. to 70° C. every 0.5° C. At the end of the experiment run, instrument software integrated image files and analyzed data automatically. A […] regression curve was generated for each well, representing the increase in light scattering over time. A temperature of aggregation (Tagg) was calculated based on the inflection point of the curve. To better compare data across experiments the average Tagg for DMSO control wells was calculated and subtracted from values for wells containing compounds to obtain a “ΔTagg” value. These ΔTagg values reflect stabilizing efficacy of the compounds.
row,Compound,DSLS NBD1/3D Human Stability delta-T (° C.) @ 100 (μM)
1,"[2H]c1c[nH]c2c(F)c(F)c(Oc3ccc(F)c(-c4nc(C(C#N)(c5cc(F)cc(CCC(=O)O)c5)C([2H])([2H])[2H])c[nH]4)c3)c(F)c12 (single isomer, unassigned) [Example 67A, 3-(3-(1-cyano-1-(2-(2-fluoro-5-((4,6,7-trifluoro-1H-indol-5-yl-3-d)oxy)phenyl)-1H-imidazol-4-yl)ethyl-2,2,2-d3)-5-fluorophenyl)propanoic acid]",B (B: 5-10° C.)
2,"CS(=O)(=O)c1c(Oc2ccc(F)c(-c3ncc(Cc4ccc5c(c4)CC(C(=O)O)C5)[nH]3)c2)c(F)cc2[nH]ccc12 (single isomer, unassigned) [Example 83A, 5-((2-(2-Fluoro-5-((6-fluoro-4-(methylsulfonyl)-1H-indol-5-yl)oxy)phenyl)-1H-imidazol-5-yl)methyl)-2,3-dihydro-1H-indene-2-carboxylic acid]",B (B: 5-10° C.)
3,"CS(=O)(=O)c1c(Oc2ccc(F)c(-c3ncc(Cc4ccc5c(c4)CC(C(=O)O)C5)[nH]3)c2)c(F)cc2[nH]ccc12 (single isomer, unassigned) [Example 83B, 5-((2-(2-Fluoro-5-((6-fluoro-4-(methylsulfonyl)-1H-indol-5-yl)oxy)phenyl)-1H-imidazol-5-yl)methyl)-2,3-dihydro-1H-indene-2-carboxylic acid]",B (B: 5-10° C.)
4,"CC(c1c[nH]c(-c2cc(Oc3c(F)cc4[nH]ccc4c3S(C)(=O)=O)ccc2F)n1)c1cccc(CC(=O)O)c1F (single isomer, unassigned) [Example 85, 2-(2-fluoro-3-(1-(2-(2-fluoro-5-((6-fluoro-4-(methylsulfonyl)-1H-indol-5-yl)oxy)phenyl)-1H-imidazol-4-yl)ethyl)phenyl)acetic acid]",B (B: 5-10° C.)
5,"CC(c1cnc(-c2cc(Oc3c(F)cc4[nH]ccc4c3CC(F)(F)F)ccc2F)[nH]1)c1cccc(CCC(=O)O)c1F (single isomer, unassigned) [Example 128A, 3-(2-fluoro-3-(1-(2-(2-fluoro-5-((6-fluoro-4-(2,2,2-trifluoroethyl)-1H-indol-5-yl)oxy)phenyl)-1H-imidazol-5-yl)ethyl)phenyl)propanoic acid]",B (B: 5-10° C.)
6,"CC(c1c[nH]c(-c2cc(Oc3c(F)cc4[nH]ccc4c3CC(F)F)ccc2F)n1)c1cccc(CCC(=O)O)c1F (single isomer, unassigned) [Example 129B, 3-(3-(1-(2-(5-((4-(2,2-difluoroethyl)-6-fluoro-1H-indol-5-yl)oxy)-2-fluorophenyl)-1H-imidazol-4-yl)ethyl)-2-fluorophenyl)propanoic acid]",C (C: ≤5° C.)
7,"CC(C)OCCOCCC(c1cnc(-c2cc(Oc3c(F)cc4[nH]ccc4c3F)ccc2F)[nH]1)c1cccc(CCC(=O)O)c1F (single isomer, unassigned) [Example 130A, 3-(3-(1-(2-(5-((4,6-difluoro-1H-indol-5-yl)oxy)-2-fluorophenyl)-1H-imidazol-5-yl)-3-(2-isopropoxyethoxy)propyl)-2-fluorophenyl)propanoic acid]",C (C: ≤5° C.)
8,"CC(c1cnc(-c2cc(Oc3c(F)cc4[nH]ccc4c3F)ccc2F)[nH]1)c1cccc(CC(=O)O)c1F (single isomer, unassigned) [Example 131B, 2-(3-(1-(2-(5-((4,6-difluoro-1H-indol-5-yl)oxy)-2-fluorophenyl)-1H-imidazol-5-yl)ethyl)-2-fluorophenyl)acetic acid]",B (B: 5-10° C.)
9,"CC(c1cnc(-c2cc(Oc3c(F)cc4[nH]ccc4c3F)ccc2F)[nH]1)c1cc(F)cc(CCC(=O)O)c1F (single isomer, unassigned) [Example 132A, 3-(3-(1-(2-(5-((4,6-difluoro-1H-indol-5-yl)oxy)-2-fluorophenyl)-1H-imidazol-5-yl)ethyl)-2,5-difluorophenyl)propanoic acid]",C (C: ≤5° C.)
10,"CC(c1cnc(-c2cc(Oc3c(F)cc4[nH]ccc4c3CP(C)(C)=O)ccc2F)[nH]1)c1cccc(CCC(=O)O)c1F (single isomer, unassigned) [Example 133A, 3-(3-(1-(2-(5-((4-((dimethylphosphoryl)methyl)-6-fluoro-1H-indol-5-yl)oxy)-2-fluorophenyl)-1H-imidazol-5-yl)ethyl)-2-fluorophenyl)propanoic acid]",C (C: ≤5° C.)
11,"CC(c1cnc(-c2cc(Oc3c(F)cc4[nH]ccc4c3CN3CCCS3(=O)=O)ccc2F)[nH]1)c1cccc(CCC(=O)O)c1F (single isomer, unassigned) [Example 134A, 3-(3-(1-(2-(5-((4-((1,1-dioxidoisothiazolidin-2-yl)methyl)-6-fluoro-1H-indol-5-yl)oxy)-2-fluorophenyl)-1H-imidazol-5-yl)ethyl)-2-fluorophenyl)propanoic acid]",B (B: 5-10° C.)
12,"CC(c1cnc(-c2cc(Oc3c(F)cc4[nH]ccc4c3CCP(C)(C)=O)ccc2F)[nH]1)c1cccc(CCC(=O)O)c1F (single isomer, unassigned) [Example 135B, 3-(3-(1-(2-(5-((4-(2-(dimethylphosphoryl)ethyl)-6-fluoro-1H-indol-5-yl)oxy)-2-fluorophenyl)-1H-imidazol-5-yl)ethyl)-2-fluorophenyl)propanoic acid]",C (C: ≤5° C.)
13,"CC(c1c[nH]c(-c2cc(Oc3c(F)cc4[nH]ccc4c3S(C)(=N)=O)ccc2F)n1)c1cccc(CCC(=O)O)c1F (single isomer, unassigned) [Example 136A, 3-(2-fluoro-3-(1-(2-(2-fluoro-5-((6-fluoro-4-(S-methylsulfonimidoyl)-1H-indol-5-yl)oxy)phenyl)-1H-imidazol-4-yl)ethyl)phenyl)propanoic acid]",B (B: 5-10° C.)
14,"CC(c1c[nH]c(-c2cc(Oc3c(F)cc4[nH]ccc4c3S(C)(=N)=O)ccc2F)n1)c1cccc(CCC(=O)O)c1F (single isomer, unassigned) [Example 136B, 3-(2-fluoro-3-(1-(2-(2-fluoro-5-((6-fluoro-4-(S-methylsulfonimidoyl)-1H-indol-5-yl)oxy)phenyl)-1H-imidazol-4-yl)ethyl)phenyl)propanoic acid]",A (A: T ≥ 10° C.)
15,"CC(c1c[nH]c(-c2cc(Oc3c(F)cc4[nH]ccc4c3S(C)(=N)=O)ccc2F)n1)c1cccc(CCC(=O)O)c1F (single isomer, unassigned) [Example 136D, 3-(2-fluoro-3-(1-(2-(2-fluoro-5-((6-fluoro-4-(S-methylsulfonimidoyl)-1H-indol-5-yl)oxy)phenyl)-1H-imidazol-4-yl)ethyl)phenyl)propanoic acid]",B (B: 5-10° C.)
16,"CC(Cc1cccc(C(C)c2cnc(-c3cc(Oc4c(F)cc5[nH]ccc5c4F)ccc3F)[nH]2)c1F)C(=O)O (single isomer, unassigned) [Example 137A, 3-(3-(1-(2-(5-((4,6-difluoro-1H-indol-5-yl)oxy)-2-fluorophenyl)-1H-imidazol-5-yl)ethyl)-2-fluorophenyl)-2-methylpropanoic acid]",B (B: 5-10° C.)
17,"CC(Cc1cccc(C(C)c2cnc(-c3cc(Oc4c(F)cc5[nH]ccc5c4F)ccc3F)[nH]2)c1F)C(=O)O (single isomer, unassigned) [Example 137B, 3-(3-(1-(2-(5-((4,6-difluoro-1H-indol-5-yl)oxy)-2-fluorophenyl)-1H-imidazol-5-yl)ethyl)-2-fluorophenyl)-2-methylpropanoic acid]",B (B: 5-10° C.)
18,"CC(Cc1cccc(C(C)c2cnc(-c3cc(Oc4c(F)cc5[nH]ccc5c4F)ccc3F)[nH]2)c1F)C(=O)O (single isomer, unassigned) [Example 137C, 3-(3-(1-(2-(5-((4,6-difluoro-1H-indol-5-yl)oxy)-2-fluorophenyl)-1H-imidazol-5-yl)ethyl)-2-fluorophenyl)-2-methylpropanoic acid]",C (C: ≤5° C.)
19,"Cc1c(Oc2ccc(F)c(-c3ncc(C(C)c4cccc([C@@H]5C[C@@H]5C(=O)O)c4F)[nH]3)c2)c(F)cc2[nH]ccc12 (single isomer, unassigned) [Example 138A, cis-2-(2-fluoro-3-(1-(2-(2-fluoro-5-((6-fluoro-4-methyl-1H-indol-5-yl)oxy)phenyl)-1H-imidazol-5-yl)ethyl)phenyl)cyclopropane-1-carboxylic acid]",C (C: ≤5° C.)
20,"Cc1c(Oc2ccc(F)c(-c3ncc(C(C)c4cccc([C@@H]5CC5C(=O)O)c4F)[nH]3)c2)c(F)cc2[nH]ccc12 (single isomer, unassigned) [Example 138B, cis-2-(2-fluoro-3-(1-(2-(2-fluoro-5-((6-fluoro-4-methyl-1H-indol-5-yl)oxy)phenyl)-1H-imidazol-5-yl)ethyl)phenyl)cyclopropane-1-carboxylic acid]",C (C: ≤5° C.)
